From PubChem BioAssay AID2060363 (Molecular Pharmacology Branch, DTP, NCI, 2025)

Tested on: 156681-154-R-J1-PDC tumor spheroids, viability % test/control
Experiment: Anticancer human tumor 156681-154-R-J1-PDC patient-derived melanoma cell line growth inhibition [TAK]
Conditions: spheroids with HUVEC and MSC; for IC50: curve of first compound; for viability, T/C: stronger effect = lower value
Source text: Combinatorial screen of targeted agents with TAK-243 and ipatasertib in multi-cell type tumor spheroids
A high-throughput screen of multi-cell type tumor spheroids was designed to identify active combinations of targeted small molecules and TAK-243 or ipatasertib. Complex spheroids include a stromal component modeled by human endothelial cells (HUVEC) and fibroblasts modeled by human mesenchymal stem cells (MSCs). The concentration ranges selected for each drug and investigational agent were based upon clinically achievable concentrations if the clinical Cmax of the agent was known.
Compounds. The drugs and investigational agents: TAK-243 (785004), ipatasertib (767898), everolimus (733504), selumetinib (741078), bortezomib (756655), trametinib (758246), ixazomib (758254), vemurafenib (761431), dabrafenib (764134), sapanisertib (764658), alpelisib (765974), and copanlisib (816437), were obtained from the National Cancer Institute (NCI) Developmental Therapeutics Program Chemical Repository. The FDA-approved anticancer drug set is available from the NCI Developmental Therapeutics Program. […] The stock solutions were prepared in dimethyl sulfoxide (DMSO, Sigma-Aldrich, St. Louis, MO, cat. D2650) at 800-fold the tested concentration and stored at -70 degrees C prior to their use. All drugs and investigational agents were tested over a range starting from a high concentration at or near the clinical Cmax and decreasing in half-log increments. If the clinical Cmax for an agent had not been determined, the highest concentration tested was 10 microM.
NCI60 Cell Culture. NCI60 cell lines were obtained from the NCI Developmental Therapeutics Program Tumor Repository. For each lot of cells, the Repository performed Applied Biosystems AmpFLSTR Identifiler testing with PCR amplification to confirm consistency with the published Identifier STR profile for each cell line. Cells were kept in continuous culture for no more than 20 passages. The optimal seeding densities for each of the cell lines at each time point assessed were determined prior to performing the concentration response studies. Briefly, the NCI60 human tumor lines were grown as monolayers in RPMI 1640 medium supplemented with 10% FBS and 2 mmol/L L-glutamine.
An additional 2 lines were from the NCI60 cell line panel including melanomas, MALME-3M and SK-MEL-2. Pooled donor human umbilical vein endothelial cells (HUVEC, Lonza, cat. CC-2519) and human mesenchymal stem cells (hMSC, Lonza, cat. PT-2501) were purchased from Lonza (Walkersville, MD).
PDMR cell lines were grown in complete medium (DC medium): Dulbecco's modified Eagle's medium (DMEM)/F12 supplemented with 5% fetal bovine serum (FBS), 2 mM L-glutamine, 100 U/mL penicillin and 100 µg/ml streptomycin, 0.4 µg/ml hydrocortisone, 10 ng/ml epidermal growth factor (EGF) recombinant human protein, 24 µg/mL adenine, and 0.1 mg/mL primocin. During culture from frozen stock vials, PDMR cells were cultured in the same medium containing 10 µM Y-27632 (see Table 3). The PDCs were cultured in complete DMEM/F12 media without 10 microM Y-27632 dihydrochloride for at least two passages prior to the screen. The pooled donor HUVEC and hMSC were cultured in endothelial cell growth medium 2 (PromoCell, Heidelberg, Germany, cat. C-22011) and mesenchymal stem cell growth medium 2 (PromoCell, cat. C-28009), respectively. For all experiments, HUVEC and hMSC were used at passages </=5.
For the pre-screen, cell seeding densities were determined from a titration spanning the range from 5,000 to 313 cells per well. The mct-spheroids including 60% malignant cells, 25% HUVEC and 15% MSC dispensed as a mixture into U-bottom Ultra-Low Attachment 384-well plates (Corning, NY)
High-throughput Drug Combination Screening.
Prior to their inoculation into 384-well plates, malignant cells, HUVEC, and hMSC were removed from T flasks using TrypLE express (Thermo Fisher Scientific, cat. 12605036) and harvested by centrifugation for 5 min at 233 x g. […]

[1] = second compound 0.3 µM, first compound 0.0316 µM
[2] = second compound 0.3 µM, first compound 0.1 µM
[3] = second compound 0.949 µM, first compound 0.0316 µM
[4] = second compound 0.949 µM, first compound 0.1 µM
[5] = second compound 3 µM, first compound 0.0316 µM
[6] = second compound 3 µM, first compound 0.1 µM
[7] = second compound 9.49 µM, first compound 0.0316 µM
[8] = second compound 9.49 µM, first compound 0.1 µM
[9] = second compound 30 µM, first compound 0.0316 µM
[10] = second compound 30 µM, first compound 0.1 µM
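Note: spheroids exposed to compounds for 7 days before the endpoint.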

Q: With Cc1nc(NC(=O)N2CCCC2C(N)=O)sc1-c1ccnc(C(C)(C)C(F)(F)F)c1 (stereo not given) + CC(C)NCC(C(=O)N1CCN(c2ncnc3c2C(C)CC3O)CC1)c1ccc(Cl)cc1 as the compound, how does the IC50 (second compound 0.3 µM) read?
A: > 10000 nM

Q: What about the IC50 (second compound 0.949 µM) of the same compound?
A: 7110 nM

Q: And the IC50 (second compound 3 µM)?
A: 1460 nM

Q: And the IC50 (second compound 9.49 µM)?
A: < 31.6 nM

Q: And the IC50 (second compound 30 µM)?
A: < 31.6 nM

Q: What about the viability, T/C [1] of the same compound?
A: 95.5%

Q: And the viability, T/C [2]?
A: 99%

Q: And the viability, T/C (second compound 0.3 µM, first compound 0.316 µM)?
A: 91%

Q: What about the viability, T/C (second compound 0.3 µM, first compound 1 µM) of the same compound?
A: 71.5%

Q: And the viability, T/C (second compound 0.3 µM, first compound 3.16 µM)?
A: 67.3%

Q: And the viability, T/C (second compound 0.3 µM, first compound 10 µM)?
A: 51.4%

Q: And the viability, T/C [3]?
A: 85.8%

Q: And the viability, T/C [4]?
A: 83.9%

Q: And the viability, T/C (second compound 0.949 µM, first compound 0.316 µM)?
A: 79%

Q: And the viability, T/C (second compound 0.949 µM, first compound 1 µM)?
A: 70.3%

Q: What about the viability, T/C (second compound 0.949 µM, first compound 3.16 µM) of the same compound?
A: 62%

Q: And the viability, T/C (second compound 0.949 µM, first compound 10 µM)?
A: 44.9%

Q: What about the viability, T/C [5] of the same compound?
A: 69.7%

Q: And the viability, T/C [6]?
A: 67.9%

Q: And the viability, T/C (second compound 3 µM, first compound 0.316 µM)?
A: 61.5%

Q: What about the viability, T/C (second compound 3 µM, first compound 1 µM) of the same compound?
A: 53.8%

Q: And the viability, T/C (second compound 3 µM, first compound 3.16 µM)?
A: 42.5%

Q: And the viability, T/C (second compound 3 µM, first compound 10 µM)?
A: 30.6%

Q: What about the viability, T/C [7] of the same compound?
A: 39.5%

Q: What about the viability, T/C [8] of the same compound?
A: 35.6%

Q: What about the viability, T/C (second compound 9.49 µM, first compound 0.316 µM) of the same compound?
A: 36.6%

Q: What about the viability, T/C (second compound 9.49 µM, first compound 1 µM) of the same compound?
A: 26.8%

Q: And the viability, T/C (second compound 9.49 µM, first compound 3.16 µM)?
A: 17.2%

Q: And the viability, T/C (second compound 9.49 µM, first compound 10 µM)?
A: 7.68%

Q: And the viability, T/C [9]?
A: 18%

Q: And the viability, T/C [10]?
A: 18%

Q: And the viability, T/C (second compound 30 µM, first compound 0.316 µM)?
A: 11.3%

Q: What about the viability, T/C (second compound 30 µM, first compound 1 µM) of the same compound?
A: 8.89%

Q: What about the viability, T/C (second compound 30 µM, first compound 3.16 µM) of the same compound?
A: 3.83%

Q: And the viability, T/C (second compound 30 µM, first compound 10 µM)?
A: 0.52%

Q: For CC(C)CC(NC(=O)CNC(=O)c1cc(Cl)ccc1Cl)B1OC(=O)CC(CC(=O)O)(C(=O)O)O1 (stereo not given) + CC(C)NCC(C(=O)N1CCN(c2ncnc3c2C(C)CC3O)CC1)c1ccc(Cl)cc1, which IC50 (second compound 0.3 µM) is on record?
A: 18 nM

Q: And the IC50 (second compound 0.949 µM)?
A: 17.1 nM

Q: And the IC50 (second compound 3 µM)?
A: 12.2 nM

Q: What about the IC50 (second compound 9.49 µM) of the same compound?
A: < 0.316 nM

Q: What about the IC50 (second compound 30 µM) of the same compound?
A: < 0.316 nM

Q: What about the viability, T/C (second compound 0.3 µM, first compound 0.000316 µM) of the same compound?
A: 96.8%

Q: What about the viability, T/C (second compound 0.3 µM, first compound 0.001 µM) of the same compound?
A: 86.9%

Q: And the viability, T/C (second compound 0.3 µM, first compound 0.00316 µM)?
A: 94.9%

Q: And the viability, T/C (second compound 0.3 µM, first compound 0.01 µM)?
A: 88%

Q: And the viability, T/C [1]?
A: 13.8%

Q: And the viability, T/C [2]?
A: 0.27%

Q: What about the viability, T/C (second compound 0.949 µM, first compound 0.000316 µM) of the same compound?
A: 88.7%

Q: What about the viability, T/C (second compound 0.949 µM, first compound 0.001 µM) of the same compound?
A: 87.7%

Q: What about the viability, T/C (second compound 0.949 µM, first compound 0.00316 µM) of the same compound?
A: 90.2%

Q: What about the viability, T/C (second compound 0.949 µM, first compound 0.01 µM) of the same compound?
A: 82.1%

Q: And the viability, T/C [3]?
A: 13.2%

Q: What about the viability, T/C [4] of the same compound?
A: 0.34%

Q: And the viability, T/C (second compound 3 µM, first compound 0.000316 µM)?
A: 79.4%

Q: And the viability, T/C (second compound 3 µM, first compound 0.001 µM)?
A: 76.9%

Q: And the viability, T/C (second compound 3 µM, first compound 0.00316 µM)?
A: 78.9%

Q: And the viability, T/C (second compound 3 µM, first compound 0.01 µM)?
A: 58.8%

Q: And the viability, T/C [5]?
A: 8.09%

Q: And the viability, T/C [6]?
A: 0.23%

Q: And the viability, T/C (second compound 9.49 µM, first compound 0.000316 µM)?
A: 43.3%

Q: And the viability, T/C (second compound 9.49 µM, first compound 0.001 µM)?
A: 41.5%

Q: And the viability, T/C (second compound 9.49 µM, first compound 0.00316 µM)?
A: 42%

Q: What about the viability, T/C (second compound 9.49 µM, first compound 0.01 µM) of the same compound?
A: 40.9%

Q: What about the viability, T/C [7] of the same compound?
A: 4.19%

Q: What about the viability, T/C [8] of the same compound?
A: 0.25%

Q: And the viability, T/C (second compound 30 µM, first compound 0.000316 µM)?
A: 17.5%

Q: And the viability, T/C (second compound 30 µM, first compound 0.001 µM)?
A: 20.3%

Q: What about the viability, T/C (second compound 30 µM, first compound 0.00316 µM) of the same compound?
A: 18.5%

Q: What about the viability, T/C (second compound 30 µM, first compound 0.01 µM) of the same compound?
A: 15.4%

Q: And the viability, T/C [9]?
A: 2.17%

Q: And the viability, T/C [10]?
A: 0.28%
